This note sets out measurements from PubChem BioAssay (NCI).

Holding throughout (assay): NCI anticancer screen, dose series, 48 h
The subject of experiment [1] is EKVX NSCLC.
Experiment [2] deals with MOLT-4 leukemia.
The test system of experiment [3] is SNB-75 CNS.
Experiment [4] has as its system HOP-62 NSCLC.
For experiment [5], the system named is ACHN renal.
The test system of experiment [6] is M14 melanoma.
The subject of experiment [7] is SF-539 CNS.
Experiment [8] concerns MALME-3M melanoma.
The test system of experiment [9] is HL-60(TB) leukemia.
Experiment [10] has as its system SN12C renal.

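These data come from cells grown in 96-well plates and exposed to compound for 48 hours at five concentrations. The concentration for 50% growth inhibition is given as GI50. Definition used: TGI = concentration required for complete inhibition of growth.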 Where only a bound is given, the exact number is not on record here.

In the case of `COc1ccc2c(c1)[n+](=O)c(C(=O)C/C(=N\NC(=O)C[N+](C)(C)C)C(=O)Nc1cc(Cl)ccc1Cl)c(C)n2O`, the TGI in experiment [1], in experiment [2], in experiment [3], in [4], in experiment [5] and in experiment [6] was > 100 µM throughout. For the same molecule, the TGI in [7], in experiment [8], in experiment [9] and in experiment [10] was > 100 µM each time.

As for `c1ccc(Oc2cnc3ccccc3n2)cc1`, the GI50 in experiment [1] is 77.4 µM; in experiment [2], 36.3 µM; in experiment [3], 33.8 µM; in experiment [4], > 100 µM; in [5], > 100 µM; in experiment [6] it was > 100 µM. For the same molecule, the GI50 in [7] was 92.3 µM; in [8] it was > 100 µM; in experiment [9] it was 18.7 µM; in experiment [10] it was > 100 µM. The TGI in experiment [1], in experiment [2], in experiment [3], in [4], in [5] and in experiment [6] was > 100 µM in each case. Besides, the TGI in experiment [7], in [8], in [9] and in experiment [10] was > 100 µM each time.

For the molecule `O=C1COCCN1c1ccc(NCc2cn(Cc3ccc(F)cc3)c3ccccc23)cc1`, the GI50 was 10.8 µM in [1]; 11.6 µM in experiment [2]; 2.03 µM in experiment [3]; 0.783 µM in experiment [4]; 2.91 µM in experiment [5]; 5.46 µM in [6]. Moreover, the GI50 in experiment [7] was 7.36 µM; in experiment [8] it was 3.47 µM; in experiment [9] it was 4.8 µM; in experiment [10] it was 4.08 µM. Further, the TGI was > 66.7 µM in experiment [1]; > 68.9 µM in [2]; 13 µM in experiment [3]; > 31.7 µM in experiment [4]; 31.4 µM in [5]; 40.8 µM in [6]. The TGI in experiment [7] is 33.1 µM; in [8], 15.4 µM; in experiment [9], 24.3 µM; in [10], > 83.7 µM.

`Cn1c(=O)ccc2cc(C(=O)c3ccccc3)ccc21`: the TGI is > 100 µM in experiment [1]; > 100 µM in experiment [2]; 54.3 µM in experiment [3]; > 100 µM in experiment [4]; > 100 µM in [5]; > 100 µM in experiment [6]. Moreover, the TGI in experiment [7], in experiment [8], in experiment [9] and in experiment [10] was > 100 µM throughout.

`CC(=O)SC(C[N+](=O)[O-])c1ccccc1` (stereo not given): the TGI in experiment [1] came out at 16 µM; in experiment [2] it was 5.36 µM; in experiment [3] it was 7.65 µM; in [4], 33 µM; in experiment [5] it was 8.94 µM; in experiment [6] it was 17.2 µM. In addition, the TGI came out at 5.26 µM in experiment [7], 35.9 µM in experiment [8], 18.9 µM in experiment [9] and 27.3 µM in experiment [10].

As for `CN(Cc1cccc(Cl)c1)c1ccc(CO)c(Cl)c1`, the GI50 was 18.4 µM in experiment [1]; 20 µM in experiment [2]; 14.7 µM in experiment [3]; 6.77 µM in [4]; 21.9 µM in [5]; 17.5 µM in experiment [6]. The GI50 in experiment [7] was 18.7 µM; in experiment [8], 18.7 µM; in experiment [9] it was 13.9 µM; in [10] it was 14.3 µM. Also, the TGI in experiment [1] is 52.1 µM; in experiment [2], 56.6 µM; in experiment [3], 49.7 µM; in experiment [4] it was 25.6 µM; in [5], 93.5 µM; in [6], 49.3 µM. For the same molecule, the TGI was found to be 38.7 µM in experiment [7], 42.3 µM in [8], 45 µM in experiment [9] and 37.2 µM in experiment [10].

`COc1ccc(/C=C2\CCC(CN(C)C)C2=O)cc1` (stereo not given): the TGI in experiment [1] was 37.5 µM; in experiment [2], 6.85 µM; in experiment [3], 25.6 µM; in [4], 33.6 µM; in [5], 21.3 µM; in experiment [6] it was 7.02 µM. Moreover, the TGI in experiment [7] was 16 µM; in experiment [8], 11.1 µM; in experiment [9], 4.23 µM; in experiment [10], 32.8 µM.

On to `CN(CC(=O)O)Cc1c[nH]c2ccccc12`, for which the TGI in experiment [1], in experiment [2], in [3], in experiment [4], in [5] and in experiment [6] was > 100 µM each time. In addition, the TGI in experiment [7], in experiment [8], in experiment [9] and in experiment [10] was > 100 µM each time.

Regarding `C/C(=N\O)c1ccc(Nc2cc(-c3ccccc3)nc3c(O)cccc23)cc1`, the GI50 was 18.9 µM in experiment [1]; 16.3 µM in experiment [3]; 12.9 µM in experiment [4]; 10.7 µM in experiment [5]; 16.2 µM in experiment [6]; 15.3 µM in experiment [7]. Further, the GI50 in [8] was 16.1 µM; in [9], 0.585 µM; in experiment [10] it was 11.9 µM. Also, the TGI in experiment [1] is > 100 µM; in experiment [3] it was 31.8 µM; in experiment [4] it was 26.6 µM; in [5], 28.2 µM; in [6], 31.3 µM; in [7], 29.6 µM. Moreover, the TGI in experiment [8] was 30.3 µM; in experiment [9], 96.6 µM; in [10], 27.6 µM.

As to `Fc1cccc(C2SCc3nc4ccccc4n32)c1` (stereo not given), the TGI in [1], in experiment [2], in experiment [3], in experiment [5], in experiment [7] and in experiment [8] was > 100 µM throughout. Also, the results for the TGI in experiment [9] and in experiment [10] were 62.8 µM and > 100 µM, respectively.

Turning to `O=C(O)c1cccc(F)c1C(=O)c1ccc2ccccc2c1`, the TGI in [1], in experiment [3], in [4], in [5], in experiment [6] and in experiment [7] was > 100 µM each time. Besides, the TGI in experiment [8], in experiment [9] and in experiment [10] was > 100 µM in each case.
